Here are results for 21 molecules from publication PMC8880129, “Plant- and Bacteria-Derived Compounds with Anti-Philasterides dicentrarchi Activity” (Pathogens, 2022).

Like-named read-outs stand apart in the source and are kept apart here. Where only a bound is given, the exact number is not on record here.

The subject of the data set is Philasterides dicentrarchi. The experiment in a line: microbe, parasite or virus in culture. The following applies: for mortality at 100 µM / inhibition at 100 µM / GI50: Philasterides dicentrarchi; for mortality at 100 µM / Ciliate Mortality 3 h (%): 3 h; for Growth Inhibition 24 h (%) / Ciliate Mortality 3 h (%): mean ± SD of three replicates. The procedure: P. dicentrarchi (isolate I1), obtained from an outbreak of scuticociliatosis in cultured turbot in Galicia, was routinely cultured at 18 °C in complete sterile L15 medium (Leibovitz, PAA Laboratories GmbH, 1% salinity, pH 7.2) containing 90 mg/L each of adenosine, cytidine, and uridine, 150 mg/L of guanosine, 5 g/L of glucose, 400 mg/L of L-α-phosphatidylcholine, 200 mg/L of Tween 80, 10% of heat-inactivated foetal bovine serum (FBS), and 10 mL/L of 100X antibiotic–antimycotic solution (100 units/mL of penicillin G, 0.1 mg/mL of streptomycin sulphate and 0.25 mg/mL of amphotericin B), as previously described. Alternatively, ciliates were cultured in seawater with autoclaved marine bacteria (10^6 cells/mL) supplied as food at 21 °C. The ciliates were cultured under normoxic conditions in tissue culture flasks fitted with vented caps that enabled aeration of the culture medium.
We tested the toxicity to P. dicentrarchi of 26 compounds of natural origin (Table 1). The compounds were prepared in 10 mM stock solutions in dimethyl sulfoxide (DMSO) and maintained at −20 °C until use. In addition, the Pseudomonas H6 lipopeptide surfactant (PS) was prepared, lyophilised and stored at −20 °C [37]. A stock solution of PS was prepared in distilled water (1000 ppm) and diluted in culture medium or seawater at the final concentrations used in each assay and sterile filtered (through 0.2 µm filters) before being added to the parasites or EPC cells.
The anticiliate activity was assayed as previously described, with minor modifications. Ciliates were concentrated by centrifugation at 650× g for 5 min and resuspended in a medium at the concentration required for the assays. All experiments were carried out in triplicate. Wells containing ciliates in a culture medium or seawater without the test compounds were assayed as negative controls. To rule out any possible effects of the solvent (DMSO), triplicate wells with a culture medium or seawater containing the highest concentration of DMSO used (up to 1%) were also included. […] In these assays, the compounds were diluted in 1 mL of culture medium or seawater and added to the wells of 24-well sterile culture plates containing 2.5 × 10^4 ciliates per well, at final concentrations of […], 6.25, 12.5, 25, 50, and 100 µM in culture medium. The effects of the compounds on the motility and morphology of the ciliates were monitored periodically (at 30 min, 1, 2, 3, 24, and 48 h) under an inverted optical microscope. Ciliates were considered dead when they lysed and were not motile. The results obtained are expressed as percentage mortality for each experimental group. To estimate the total number of ciliates per well, the ciliates were inactivated by adding 0.25% glutaraldehyde and counted in a haemocytometer under an optical microscope. The lowest dose of the selected compounds resulting in 100% ciliate mortality (LC100) was assessed at 1, 2, and 3 h after incubation of parasites with sample dilutions (from 0 to 100 μg/mL, in 10 μg intervals). The concentration that inhibited 50% of ciliate growth (GI50), in comparison with the control group, was calculated with Excel software (Microsoft Office; Microsoft, Redmond, WA, USA) by plotting the dose-response data (log dose-per cent of growth inhibition) and applying linear regression (y = mx + b) for data fitting. The values were then calculated from the equation log GI50 = (50 − b)/m, where m is the slope y1 − y2/x1 − x2, and b is the intercept of the line.

The mark [1] stands for this setting: read-out: Ciliate Mortality 3 h (%), 100 μM, 3 h, culture medium, mean ± SD of three replicates.
Setting [2] is: 24 h, read-out: Growth Inhibition 24 h (%), 100 μM, 24 h, culture medium, mean ± SD of three replicates.
Where [3] appears, read: 24 h, read-out: GI50 24 h (compound concentration that inhibited 50% of parasite growth).
Setting [4] is: 48 h, read-out: GI50 48 h (compound concentration that inhibited 50% of parasite growth).

In the case of `C[C@@H]1CC[C@H]2C(C)(C)[C@H]3C[C@@]12CC[C@@]3(C)O` [Cedrol], the mortality at 100 µM under setting [1] was determined as 64.2 ± 3.7%. Also, the inhibition at 100 µM under setting [2] is 66.67 ± 0.33%.

In the case of `C=CCSCC=C` [Diallyl sulfide], the mortality at 100 µM under setting [1] was 22.3 ± 5.1%. Besides, the inhibition at 100 µM under setting [2] came to 38.8 ± 7.32%.

With `CC12CCC(CC1)C(C)(C)O2` [Eucalyptol], the mortality at 100 µM under setting [1] worked out at 17 ± 8.42%. For the same molecule, the inhibition at 100 µM under setting [2] is 35.6 ± 4.21%.

On to `O=c1ccc2cc(O)c(O)cc2o1` [Esculetin], for which the mortality at 100 µM under setting [1] is 8.2 ± 5.32%. Besides, the inhibition at 100 µM under setting [2] was 15.3 ± 6.32%.

As to Garlicin [Garlicin 80%], under “100 μM, 24 h, culture medium”, the “Growth Inhibition 24 h (%)” value was found to be 42.47 ± 5.62%.

With `CCCCCCc1ccc(O)cc1O` [4-hexylresorcinol], under “100 μM, culture medium”, the “Ciliate Mortality 3 h (%)” value worked out at 95.3 ± 4.05%. Further, the “parasites killed after 24 h” value (100 μM, 24 h, culture medium) was “killed all the parasites”. Further, the mortality at 100 µM under setting [1] is greater than 90%. Also, the GI50 under setting [3] stood at 63.3 ± 3.61 µM and the GI50 under setting [4] was determined as 40.8 ± 0.11 µM. Moreover, under setting [2], the inhibition at 100 µM is 100%.

Consider `C[C@H]1[C@H]2CC[C@H]3[C@@H]4CC=C5C[C@@H](N(C)C)CC[C@]5(C)[C@H]4CC[C@]23CN1C` [Conessine], for which the “Growth Inhibition 24 h (%)” value (100 μM, 24 h, culture medium) turned out to be 84.42 ± 2.42%. Besides, under setting [1], the mortality at 100 µM stood at 50.2 ± 4.5%. Moreover, the GI50 reads like this: under setting [3], 12 ± 0.8 µM; under setting [4], 11.2 ± 0.65 µM. The inhibition at 100 µM under setting [2] is greater than 80%.

`CC(O)C(=O)[O-].[Na+]` (centres unmarked) [Sodium lactate]: the “Ciliate Mortality 3 h (%)” value (100 μM, culture medium) is given as 13.76 ± 4.1%. Besides, for the setting “100 μM, 24 h, culture medium”, the “Growth Inhibition 24 h (%)” value was 28.33 ± 3.93%.

Consider `O=c1ccc2ccccc2o1` [Coumarin], for which the mortality at 100 µM under setting [1] turned out to be 8 ± 5.9%. Under setting [2], the inhibition at 100 µM turned out to be 23.5 ± 4.12%.

For `CC12CCC(CC1=O)C2(C)C` (centres unmarked) [Camphor (1r)], for the setting “100 μM, culture medium”, the “Ciliate Mortality 3 h (%)” value turned out to be 0%. Also, the “Growth Inhibition 24 h (%)” value (100 μM, 24 h, culture medium) turned out to be 77.42 ± 2.7%.

On to `C[C@H]1C(=O)O[C@@H]2CCN3CC=C(COC(=O)[C@](C)(O)[C@]1(C)O)[C@H]23` [Monocrolatine], for which the “Ciliate Mortality 3 h (%)” value (100 μM, culture medium) was found to be 6.61 ± 1.06%. Moreover, the “Growth Inhibition 24 h (%)” value (100 μM, 24 h, culture medium) is 9.8 ± 2.11%.

For `CC1(C)CCC[C@]2(C)[C@H]3CC(=O)O[C@]3(C)CC[C@@H]12` [Sclareolide], the “Growth Inhibition 24 h (%)” value (100 μM, 24 h, culture medium) stood at 71.67 ± 6.92%.

As for `CCCCOC(=O)c1ccc(O)cc1` [Butyl 4-hydroxybenzoate], the “Growth Inhibition 24 h (%)” value (100 μM, 24 h, culture medium) is 80.65 ± 2.42%. Besides, the mortality at 100 µM under setting [1] came out at 52.9 ± 2.39%. Moreover, the GI50 under setting [3] stood at 43.9 ± 6.6 µM and the GI50 under setting [4] was 29.2 ± 0.35 µM. The inhibition at 100 µM under setting [2] is greater than 80%.

Regarding `OCCc1ccccc1` [Phenylethyl alcohol], the mortality at 100 µM under setting [1] stood at 2.3 ± 1.4%. For the same molecule, under setting [2], the inhibition at 100 µM came to 30.1 ± 4.63%.

In the case of `O=C(/C=C/C=C/c1ccc2c(c1)OCO2)N1CCCCC1` [Piperine], the “Growth Inhibition 24 h (%)” value (100 μM, 24 h, culture medium) came to 89.04 ± 3.37%. Under setting [1], the mortality at 100 µM stood at 42.6 ± 9.1%. The GI50 amounted to 60.7 ± 6.31 µM under setting [3] and 44 ± 1.83 µM under setting [4]. Also, the inhibition at 100 µM under setting [2] is greater than 80%.

In the case of `CC1=NCCc2c1[nH]c1cc(O)ccc21.Cl.O.O` [Harmalol hydrochloride dihydrate], the “Ciliate Mortality 3 h (%)” value (100 μM, culture medium) is 4.8 ± 1.12%. The “Growth Inhibition 24 h (%)” value (100 μM, 24 h, culture medium) amounted to 40.08 ± 4.9%.

`O=c1cc(-c2ccccc2)oc2cc(O)ccc12` [7-hydroxyflavone]: the mortality at 100 µM under setting [1] was 10 ± 1.52%. Under setting [2], the inhibition at 100 µM stood at 67.4 ± 2.4%.

Consider `O=c1ccc2ccc(O)cc2o1` [Umbelliferone], for which, under setting [1], the mortality at 100 µM was found to be 2.9 ± 1.89%. Further, the inhibition at 100 µM under setting [2] came to 44.9 ± 7.23%.

Take `CC(=O)c1c(O)c(C)c(O)c2c1OC1=CC(=O)C(C(C)=O)C(=O)C12C` (centres unmarked) [Usnic acid]: under setting [1], the mortality at 100 µM was determined as 38.3 ± 5.52%. Besides, the inhibition at 100 µM under setting [2] amounted to 68.3 ± 3.34%.

`O=C(/C=C/c1ccc(O)c(O)c1)O[C@H](Cc1ccc(O)c(O)c1)C(=O)O` [Rosmarinic acid]: the mortality at 100 µM under setting [1] amounted to 27.1 ± 7.27%. The inhibition at 100 µM under setting [2] came out at 35 ± 5.51%.

With `O=C(O)c1ccccc1` [Benzoic acid], the mortality at 100 µM (read-out: Ciliate Mortality 3 h (%)) came out at 1.64 ± 0.56%. In addition, the inhibition at 100 µM (24 h, read-out: Growth Inhibition 24 h (%)) was 17.4 ± 1.2%.
